Results: article PMC7835950 (Frontiers in Chemistry, 2021)
Several values for one entry are separate records, joined by “and”; a condition that tells them apart may be missing. Equal entries are not always repeated.

How the values were obtained:
[1] = Stability of the phosphonates and their esters during storage, by NMR; format: physicochemical; settings: for decrease of purity: pure oil, room temperature, argon atmosphere, 6 months
Protocol: Stability of the purified phosphonates and their esterified precursor was analyzed by NMR after storage under the inert (pure argon) or ambient (air) atmosphere and in water solutions. ^1H, ^13C and ^31P NMR spectra were recorded at 400, 100.6, and 161.9 MHz, respectively with a Bruker Avance 400 spectrometer. Chemical shifts were calculated using D2O or CDCl3 as reference standards for trisodium salts and triesters, respectively. The spectra of the phosphonates and their esters before and after storage are shown in Supplementary Figures 1, 2 correspondingly.

[2] = substrate: O=C(O)CCCC(=O)C(=O)O; assay: OADH reaction catalyzed by the enzyme preparation from rat liver, low [OA] (high-affinity OA sites); format: biochemical; settings: other: liver preparation, pH 7.0
Protocol: (§1) Enzymes catalyzing OGDH and OADH reactions were enriched from rat hearts and livers using polyethylene glycol precipitation, as previously described (Artiukhov et al., [2020]).
(§2) The enzyme activities were assayed in the medium (pH 7.0) containing 50 mM MOPS, 1 mM ThDP, 1 mM MgCl2, 1 mM CaCl2, 1 mM dithiothreitol 0.15 mM Coenzyme A, 0.25 mM NAD^+ and various concentrations of 2-oxo substrates (0–10 mM OG or OA) and their phosphonate analogs (0–5,000 μM SP, GP, or AP). Reactions were started by addition of the enzyme preparations to the assay media. The amount of enzyme preparations (0.074 mg protein for the preparation from liver and 0.023 mg protein for the preparation from heart) were chosen to induce the lowest reliably measured reaction rate (ΔA340 = 0.001/min) at 0.01 mM OA without the phosphonates.
(§3) Reaction rates were calculated from linear parts of the product accumulation curves (up to 10 min, dependent on the reaction rate), excluding the initial region, where mixing the reagents and solubilization of the preparation affected the optical density. […]
(§4) The kinetic data were also analyzed by linear regression, using the known methods of the linearization of the Michaelis-Menten equation in the Lineweaver-Burk ( 1/a=1/Amax(1+Km/[S]) ) and Eadie-Hofstee ( a=Amax−Kmv/[S] ) coordinates. […]

[3] = substrate: O=C(O)CCCC(=O)C(=O)O; assay: OADH reaction catalyzed by the enzyme preparation from rat liver, high [OA] (low-affinity OA sites); format: biochemical; settings: other: liver preparation, pH 7.0
Protocol: as §1, §2, §3, §4

[4] = substrate: O=C(O)CCCC(=O)C(=O)O; assay: OADH reaction (OA saturation) catalyzed by the enzyme preparation from rat heart; format: biochemical; settings: other: heart preparation; pH 7.0
Protocol: as §1, §2, §3, §4

[5] = substrate: O=C(O)CCC(=O)C(=O)O; assay: purified protein, by the assay type; settings: pH 7.0
[6] = 0.2 M aqueous solution, 5 days of shelf storage, 31P NMR

**Q.** With `CCOC(=O)CCCC(=O)P(=O)(OCC)OCC` [TEGP, triethyl glutaryl phosphonate] as the molecule, how does the compound preserved [1, 6] read?
**A.** about 80%

**Q.** And the decrease of purity [1]?
**A.** 4–6%

**Q.** With `CCOC(=O)CCC(=O)P(=O)(OCC)OCC` [TESP, triethyl succinyl phosphonate] as the molecule, how does the decrease of purity [1] read?
**A.** 4–6%

**Q.** For `COC(=O)CCCCC(=O)P(=O)(OC)OC` [TMAP, trimethyl adipoyl phosphonate], which compound decomposed [1, 6] is on record?
**A.** 90%

**Q.** And the decrease of purity [1]?
**A.** 4–6%

B1: OADH (Rattus norvegicus) (protein)
chain: MASATVAAAGRALRRAVPLLRRSYQTERGVYGYRPRKAGSGEPRGDRARPSVDHGLARLVTVYCEHGHKAAQINPLFPGQALLDTVPEIQALVQTLQGPFTTTGLLNMGKEEASLEEVLAYLNHIYCGPISIETAQLQSQEEKDWFARRFEELKKETFTTEERKHLSKLLLESQEFDHFLATKFATVKRYGGEGAESMMGFFHELLKLSAYGGITDIIIGMPHRGRLNLLTGLLQLPPELMFRKMRGLSEFPENVAAIGDVLSHLTSSVDLDFGAHRPLHVTMLPNPSHLEAINPVAVGKTRGRQQSQEDGDYSPNGSAQPGDKVICLQVHGDASFCGQGIVLETFTLSNLPHFRIGGSIHLIVNNQLGYTTPAERGRSSLYSSDIGKLVGCAIIHVNGDSPEEVVRATRLAFEYQRQFRKDVIIDLLCYRQWGHNELDEPFFTNPVMYKIIRARKSIPDTYAEHLIASGLMTQEEVSDIKASYYAKLNGHLANVAHYSPPAPHLQARWQGLVQPAACVTTWDTGVPLELLRFVGVKSVEVPEELQLHSHLLKMYVQSRMEKVKNGTNLDWATAETLALGSLLAQGFNVRLSGQDVGRGTFSQRHAMVVCQNTDDVYIPLNHMDPNQKGFLEVSNSPLSEEAVLGFEYGMSIESPKLLPLWEAQFGDFFNGAQIIFDTFISGGEAKWLLQSGLVILLPHGYDGAGPDHSSCRIERFLQMCDSAEEGVDSDTVNMFVVHPTTPAQYFHLLRRQMMRNFRKPLIVASPKMLLRYPVAVSTLEEMAPGTAFKPVIGDSSVDPKNVKTLIFCSGKHFYALLKQRESLGAKKRDFAIIRLEELCPFPLDSLQQEMGKYKHVQDIIWSQEEPQNMGPWSFVYPRFEKQLACKLRLVSRPPLPAPAVGIGTVHQQQHEAILFKTFTS
**Q.** Which Km [2] does the source give for B1 here?
**A.** 8 ± 1 µM and 7.7 ± 0.8 µM

B2: OGDH (Rattus norvegicus) (protein)
chain: SAPVAAEPFLSGTSSNYVEEMYCAWLENPKSVHKSWDIFFRNTNAGAPPGTAYQSPLSLSRSSLATMAHAQSLVEAQPNVDKLVEDHLAVQSLIRAYQIRGHHVAQLDPLGILDADLDSSVPADIISSTDKLGFYGLHESDLDKVFHLPTTTFIGGQEPALPLREIIRRLEMAYCQHIGVEFMFINDLEQCQWIRQKFETPGIMQFTNEEKRTLLARLVRSTRFEEFLQRKWSSEKRFGLEGCEVLIPALKTIIDMSSANGVDYVIMGMPHRGRLNVLANVIRKELEQIFCQFDSKLEAADEGSGDMKYHLGMYHRRINRVTDRNITLSLVANPSHLEAADPVVMGKTKAEQFYCGDTEGKKVMSILLHGDAAFAGQGIVYETFHLSDLPSYTTHGTVHVVVNNQIGFTTDPRMARSSPYPTDVARVVNAPIFHVNSDDPEAVMYVCKVAAEWRNTFHKDVVVDLVCYRRNGHNEMDEPMFTQPLMYKQIRKQKPVLQKYAELLVSQGVVNQPEYEEEISKYDKICEEAFTRSKDEKILHIKHWLDSPWPGFFTLDGQPRSMTCPSTGLEEDILTHIGNVASSVPVENFTIHGGLSRILKTRRELVTNRTVDWALAEYMAFGSLLKEGIHVRLSGQDVERGTFSHRHHVLHDQNVDKRTCIPMNHLWPNQAPYTVCNSSLSEYGVLGFELGFAMASPNALVLWEAQFGDFNNMAQCIIDQFICPGQAKWVRQNGIVLLLPHGMEGMGPEHSSARPERFLQMCNDDPDVLPNLQEENFDISQLYDCNWIVVNCSTPGNFFHVLRRQILLPFRKPLIVFTPKSLLRHPEARTSFDEMLPGTHFQRVIPEDGPAAQNPDKVKRLLFCTGKVYYDLTRERKARDMAEEVAITRIEQLSPFPFDLLLKEAQKYPNAELAWCQEEHKNQGYYDYVKPRLRTTIDRAKPVWYAGRDPAAAPATGNKKTHLTELQRFLDTAFDLDAFKKFS
notes: the tissue fractions with the complexes enriched to a degree allowing for a robust detection of the enzymatic activities, have been used; from tissue; host or cells: rat liver
**Q.** For B2, which Km [3] is on record?
**A.** 450 ± 120 µM

**Q.** What about the Km [4] of the same molecule?
**A.** 550 ± 70 µM

**Q.** And the Km ([5]; other: heart preparation)?
**A.** 450 ± 60 µM

**Q.** What about the Km ([5]; other: liver preparation) of the same molecule?
**A.** 270 ± 60 µM
